Measurements: the NIST ThermoML archive (doi:10.1016/j.fluid.2017.01.019)

Experiment: xn = mol fraction of the nth substance listed
Details: 100 kPa, Liquid; for viscosity: Falling or rolling sphere viscometry; for speed of sound: Frequency=3 MHz, Sing-around technique in a fixed-path interferometer; for mass density: Vibrating tube method

CCCCO [butan-1-ol] + CO
Details	mass density, 298.15 K [kg/m3]	mass density, 303.15 K [kg/m3]	mass density, 308.15 K [kg/m3]	speed of sound, 298.15 K [m/s]	speed of sound, 303.15 K [m/s]	speed of sound, 308.15 K [m/s]	viscosity, 293.15 K [mPa·s]	viscosity, 303.15 K [mPa·s]	viscosity, 308.15 K [mPa·s]
x1 = 0.0997	791.339	786.81	782.263	1130.6	1114.2	1097.9	0.7	0.65	0.6
x1 = 0.1994	794.665	790.266	785.837	1150	1133.6	1117.3	0.83	0.76	0.71
x1 = 0.3068	797.503	793.243	788.95	1169.2	1152.4	1136.4	0.99	0.91	0.84
x1 = 0.3991	799.477	795.305	791.101	1183.5	1166.7	1150.6	1.15	1.05	0.96
x1 = 0.5082	801.494	797.42	793.315	1197	1180.4	1163.9	1.36	1.23	1.12
x1 = 0.604	802.958	798.956	794.922	1210.3	1193.7	1177.2	1.57	1.41	1.28
x1 = 0.6992	804.13	800.184	796.169	1218	1201.4	1184.8	1.77	1.59	1.43
x1 = 0.7994	805.057	801.155	797.222	1228.8	1212.1	1195.5	2.05	1.83	1.64
x1 = 0.9038	805.689	801.817	797.914	1235.8	1219.1	1202.4	2.34	2.08	1.86
x1 = 1	806.27	802.42	798.536	1241.1	1224.3	1207.5	2.61	2.31	2.07
